In brackets after ≈: the same amount, converted by molar mass.
Key:
[1] = Cytotoxicity against mouse RAW264.7 cells assessed as decrease in cell viability pretreated at 50 uM for 1 hr followed by addition of LPS incubated for 24 hrs by MTT assay; format: cell-based; details: read-out: INH
RAW264.7 [2] = experiment: Inhibition of LPS-induced IL-6 mRNA level in mouse RAW264.7 cells in presence of 1 ug/ml LPS for 6 hrs by qRT-PCR analysis; format: functional, cell-based
RAW264.7 [3] = experiment: Inhibition of LPS-induced IL-1beta mRNA level in mouse RAW264.7 cells in presence of 1 ug/ml LPS for 6 hrs by qRT-PCR analysis; format: functional, cell-based
Rattus norvegicus = experiment: Inhibition of LPS-induced TNF-alpha production in albino Wistar rat plasma pretreated with compound at 50 mg/kg, po followed by administration of 0.3 mg/kg, ip LPS measured after 90 mins by ELISA; format: functional
RAW264.7 [4] = experiment: Inhibition of LPS-induced TNF-alpha mRNA level in mouse RAW264.7 cells in presence of 1 ug/ml LPS for 6 hrs by qRT-PCR analysis; format: functional, cell-based
RAW264.7 [5] = experiment: Toxicity in mouse RAW264.7 cells assessed as effect on NO production by Griess method; format: cell-based
RAW264.7 [6] = experiment: Toxicity in mouse RAW264.7 cells assessed as effect on TNF-alpha mRNA level by qRT-PCR analysis; format: cell-based
RAW264.7 [7] = experiment: Inhibition of LPS-induced TNF-alpha production in mouse RAW264.7 cells pretreated with compound at 100 uM for 1 hr followed by addition of 1 ug/ml LPS for 6 hrs by ELISA; format: functional
RAW264.7 [8] = experiment: Inhibition of LPS-induced TNF-alpha production in mouse RAW264.7 cells pretreated with compound for 1 hr followed by addition of 1 ug/ml LPS for 6 hrs by ELISA; format: functional, cell-based
RAW264.7 [9] = experiment: Inhibition of LPS-induced NO production in mouse RAW264.7 cells at 100 ug/ml cotreated with 1 ug/ml LPS for 16 hrs by Griess reagent method; format: functional
RAW264.7 [10] = experiment: Inhibition of LPS-induced TNF-alpha production in mouse RAW264.7 cells pretreated with compound at 10 uM for 1 hr followed by addition of 1 ug/ml LPS for 6 hrs by ELISA; format: functional

IC50 (RAW264.7 [8]) [µg/mL] | SMILES | cytotoxicity at 24 h, 50 µM [1] [%] | inhibition (RAW264.7 [2]) | inhibition (RAW264.7 [3]) | inhibition (INH) (Rattus norvegicus) [%] | inhibition (RAW264.7 [4]) | Activity (RAW264.7 [5]) | Activity (RAW264.7 [6]) | inhibition (INH) (RAW264.7 [7]) [%] | inhibition (INH) (RAW264.7 [9]) [%] | inhibition (INH) (RAW264.7 [10]) [%]
– | CC(C)C[C@@H]1NC(=O)[C@@H]2C[C@@H](O)CN2C1=O | 3 | Dose-dependent effect | Dose-dependent effect | 51 | Dose-dependent effect | Non-toxic | Non-toxic | 49.3 | – | –
– | O=C1N[C@@H](Cc2ccccc2)C(=O)N2CCC[C@@H]12 | 3 | Dose-dependent effect | Dose-dependent effect | – | Dose-dependent effect | Non-toxic | Non-toxic | 45 | – | –
14.2 (≈ 54.6 µM) | O=C1N[C@@H](Cc2ccccc2)C(=O)N2C[C@H](O)C[C@@H]12 | 3 | Dose-dependent effect | Dose-dependent effect | – | Dose-dependent effect | Non-toxic | Non-toxic | – | 43.5 | –
4.5 (≈ 29.2 µM) | O=C1NCC(=O)N2CCC[C@@H]12 [CYCLO(PROLYLGLYCYL)] | 3 | Dose-dependent effect | Dose-dependent effect | – | Dose-dependent effect | Non-toxic | Non-toxic | – | 39.7 | –
– | C[C@]12C=CC(=O)C=C1CC[C@@H]1[C@@H]2[C@@H](O)C[C@@]2(C)[C@H]1CC[C@]2(O)C(=O)CO [PREDNISOLONE] | – | – | – | – | – | – | – | – | – | 42.8

Reference: ChEMBL document CHEMBL3739388, “Attenuation of TNF-α secretion by L-proline-based cyclic dipeptides produced by culture broth of Pseudomonas aeruginosa” (Bioorg Med Chem Lett, 2015)
